Assay results from US20250359555A1, “STREPTOMYCES VENEZUELAE FOR THE BIOLOGICAL CONTROL OF PLANT DISEASES” (UNIVERSITA' DEGLI STUDI DI MODENA E REGGIO EMILIA (80%), priority 2022, published 2025).

Assays:
Fusarium spp. [1] = assay: Field trial onion var. Fundador, emergence and bio-control under natural Fusarium spp. inoculum pressure (FC2020); format: in vivo; details: first survey (18 days after the sowing), control 178.12
Protocol: (§1) In this experiment, onion var. Elenka was tested. The test experimental design was organized at randomized blocks for the 4 treatment types, each in duplicate. In the extended test carried out at an experimental field with high natural pressure of fungal inoculum of Fusarium spp., the experimental plots had the following dimensions: 1.8 m (width)×25 m (length) with four sowing rows per parcel The sowing was performed with mechanical seeder (mod. SPX 2015-Bassi Seminatrici, IT) at the density of 600,000 onion seeds per hectare. The surveys were carried out on a length of 20 meters, in the medial part of each respective plot. The recorded data of disease severity were subjected to statistical analysis of the variance (one-way ANOVA). The results were compared to the post hoc Tukey's HDS test.
For trial description, experimental design, agronomic practices, see Example 7. […]. The recorded data were subjected to statistical analysis of the variance (one-way ANOVA). The results were compared to the post hoc Tukey's HDS test.

fennel var. Crono [2] = assay: Commercial field trial fennel var. Crono, emergence and germination (AQ2020); format: in vivo, Foeniculum vulgare
From the text: In this experiment, the fennel var. Crono was used, in order to study the effect of Streptomyces sp. DLS 1568, applied as microbial coating agent, on the emergence and germination of the crop.
The test experimental design was organized at randomized blocks for the 4 treatment types, each in duplicate (replicate). In the experimental test carried out at a plot, the experimental parcels had the following dimensions: 1.5 m (width)×100 m (length) with four sowing rows per plot. The sowing was carried out with a mechanical seeder. During the experimental field trials, conducted according to the best agronomical practices, harmful bacteria and insects' infections were not observed, causing damages to the cultures during the experiment. Weeds were controlled according to the farms' integrated weed management.
The first survey was carried out 20 days after the sowing, assessing the whole length of each plots. The second survey was carried out 32 days after seed sowing and the third and last survey was done after one month from the second survey. The recorded data were subjected to the statistical analysis of the variance (one-way ANOVA). The results were compared to the post hoc Tukey's HDS test.

fennel var. Crono [3] = assay: Field trial fennel var. Crono, emergence, germination and vigor (AQ2021); format: in vivo, Foeniculum vulgare; details: for average vigor index: scale 1-4 (Table 8)
Protocol: For the field trial description, experimental design, and the applied agronomic practices, see Example 10.
For this experiment, sowing was carried out with mechanical seeder. The first survey was carried out 14 days after the sowing, assessing the whole length of each plot: 1.5 m (width)×100 m (length) with four sowing rows per plot. The second survey was carried out one month after sowing and the third and last survey two months after sowing, assessing both number of emerged plants and vigor according to the assessment scale described in Table 8. The recorded data were subjected to the statistical analysis of the variance (one-way ANOVA). The results were compared to the post hoc Tukey's HDS test.

onion var. Elenka = assay: Field trial onion var. Elenka, agronomic features (phenological development) (FC2020); format: in vivo, Allium cepa
Protocol: as §1
For the assay description, experimental design, agronomic practices, see Example 7. Before sowing, the fields were not treated with herbicides or fungicides. During the experimental field trial, carried out according to the best agronomical practices, harmful bacteria and insects' infections were not observed, causing damages to the cultures during the experiment. The weeds were managed according to the disciplinary regulations described in Cornell Vegetable Management Guidelines and Recommendations (Reiners et al., 2019). […]

Fusarium spp. [4] = assay: Field trial onion var. Elenka, emergence and bio-control under natural Fusarium spp. inoculum pressure (FC2020); format: in vivo; details: for number of emerged seedlings: control 182.50; for number of emerged plants: fourth survey (97 days after the sowing)
Protocol: as §1
In the preparation phase before the sowing, the fields were not treated with herbicides or fungicides. During the experimental test, carried out following the agronomical good practices, harmful bacteria and insects' infections were not observed, causing damages to the cultures during the experiment. The weeds were controlled according to the disciplinary regulation described in Cornell Vegetable Management Guidelines and Recommendations (Reiners et al., 2019).
Samples of symptomatic material such as onion roots and bulbs were withdrawn during the cultural season for isolating Fusarium-like fungal colonies and the subsequent identification thereof and confirmation of the etiological agent, through a preliminary analysis of conidial identification at the microscope, followed by a molecular analysis. The molecular identification was carried out through the amplification of the conserved region ITS by polymerase chain reaction (PCR) according to White et al., 1990. The amplification products were then purified and sequenced at Bio-Fab Research s.r.l. (Rome, IT). The nucleotide sequences of ribosomal DNA of the conserved region ITS (Internal Transcription Spaces) were then analyzed through the program for the research of sequence similarity in the international DNA database BLAST (Basic Local Alignment Search Tool;//www.ncbi.nlm.nih.gov/BLAST).

[5] = first survey (18 days after the sowing)
[6] = second survey (42 days after the sowing)

SMILES | number of plants emerged (Fusarium spp. [1]) | Number of emerged plants, Survey 1 Average value (fennel var. Crono [2]; AQ2020, 20 days after the sowing, control 339.50) | Number of emerged plants, Survey 2 Average value (fennel var. Crono [2]; AQ2020, 32 days after sowing, after manual thinning, control 194.40) | Number of emerged plants, Survey 3 Average value (fennel var. Crono [2]; AQ2020, one month from the second survey, control 187.00) | Number of emerged plants, Survey 1 Average value (fennel var. Crono [3]; AQ2021, 14 days after the sowing, control 313.00) | Number of emerged plants, Survey 2 Average value (fennel var. Crono [3]; AQ2021, one month after sowing, after manual thinning, control 180.75) | average vigor index (fennel var. Crono [3]; AQ2021, second survey, control 2.34) | average vigor index (fennel var. Crono [3]; AQ2021, third survey, control 2.71) | Number of emerged plants, Survey 3 Average value (fennel var. Crono [3]; AQ2021, two months after sowing, control 173.00) | plant height (onion var. Elenka; second survey) [cm] | number of emerged seedlings (Fusarium spp. [4]; [5]) | number of emerged plants (Fusarium spp. [4]) | number of plants emerged (Fusarium spp. [4]; [6]) | number of leaves (onion var. Elenka; third survey) | increase of the germinal emergence with respect to the control (Fusarium spp. [4]; [5]) [%] | increase of the germinal emergence with respect to the treatment with Streptomyces sp. SA51 (Fusarium spp. [4]; [5]) [%] | increase of the germinal emergence with respect to the treatment with fludioxonil (Fusarium spp. [4]; [5]) [%] | increase of number of emerged plants with respect to Streptomyces sp. SA51 (Fusarium spp. [4]; [6]) [%] | increase of number of emerged plants with respect to fludioxonil (Fusarium spp. [4]; [6]) [%]
N#Cc1c[nH]cc1-c1cccc2c1OC(F)(F)O2 [Fludioxonil, fludioxonil] | 210.12 | 339.50 | 217.30 | 198.62 | 323.88 | 205.00 | 2.49 | 3.01 | 186.63 | 10.11 | 175.63 | 72.75 | 147.00 | – | – | – | – | – | –
O=[O+][O-] [Ozone] | 185.87 | – | – | – | – | – | – | – | – | – | 214.63 | 119.17 | 207.88 | 4.69 | 17 | 26 | 22 | 51 | 41
